According to PubChem BioAssay AID2305 (GlaxoSmithKline (GSK), 2010):

The compounds below were run on P. falciparum 3D7 growth, pLDH absorbance (assay: blood-stage malaria parasite growth potency – strain 3D7, dose response (AID 2305)).
For COc1ccc(Cc2nc3c(n2C(C)=O)SC(c2ccc(Cl)c(Cl)c2)=NN3C(C)=O)cc1, the IC50 was 810 nM.
Work on COc1cc(F)c2ncc(Cl)c([C@H](O)CN3CCC(NCc4ccc5c(n4)NC(=O)CO5)CC3)c2c1 yielded an IC50 of 160 nM.
For Cc1cccc2[nH]c(-c3cccc(-c4cccc(NC(=O)c5csnn5)c4)c3)nc12, the IC50 was 300 nM.
For COc1ccc2ccc(F)c(CC(=O)N3CCOC(CNCc4cccc(-c5ccsc5)n4)C3)c2n1 (stereo not drawn), the IC50 was 1170 nM.
Compound CC[C@H](C)CNC(=O)c1ccnc(-c2ccc(CN3CCC(N4CCCC4)CC3)cc2)c1 has an IC50 of 890 nM.
CCN(CCCN1CCCCC1)c1cc(C)nc(Nc2ccc(C)c(C)c2)n1 was tested, and the IC50 was 1020 nM.
With O=C(C=Cc1cc([N+](=O)[O-])ccc1Cl)N1CCC(CCN2CCC(c3c[nH]c4ccccc34)CC2)CC1 the IC50 was 740 nM.
In the case of COc1ccc(C(=O)N2CCC3(CC2)C(=O)N(CC(=O)NCC2CCCCC2)CN3c2ccccc2)cc1, the IC50 is reported as 270 nM.
In the case of Cc1ccc(-c2ccc(Cl)cc2Oc2cnc(N)nc2N)o1, the IC50 is reported as 1080 nM.
Compound O=C(Nc1ccc(Cl)cc1)c1cccc(S(=O)(=O)NC2CCN(CC3CCCCC3)CC2)c1 has an IC50 of 720 nM.
For Cc1cccc(Nc2nccc(Nc3cccc(C(=O)NCCN4CCOCC4)c3)n2)c1, the IC50 was 1420 nM.
With CN1CCN(Cc2c(O)ccc3c(=O)c(Oc4ccc(C(C)(C)C)cc4)c(C(F)(F)F)oc23)CC1 the IC50 was 810 nM.
CC(C)n1ncc2c3c(N)nc(N)nc3ccc21 gave an IC50 of 330 nM.
Cn1nccc1C(=O)NCCNCc1cccc(-c2cccc(-c3nc4ccc(C(F)(F)F)cc4[nH]3)c2)c1 showed an IC50 of 170 nM.
Work on CN(C)CCCOc1ccccc1CN1CC[C@H](NC(=O)c2ccc(Cl)c(Cl)c2)C1 yielded an IC50 of 1110 nM.
COc1ccc(CN2CCCC(OC(c3ccc(F)cc3)c3ccc(F)cc3)C2)c(O)c1 (stereo not drawn) was tested, and the IC50 was 610 nM.
Compound CC(C)Oc1cc2c(cc1NS(=O)(=O)c1ccc(-c3ccc(Cl)cc3)cc1F)CCN(C)CC2 has an IC50 of 920 nM.
COc1ccc(NC(=O)[C@H](CC(C)C)Nc2cc(C)nc(NCCc3ccccc3)n2)cc1 was tested, and the IC50 was 890 nM.
CN1CCC(c2ccc(NC(=O)c3ccc(-c4cccc(C(F)(F)F)c4)o3)cc2)CC1 was tested, and the IC50 was 1130 nM.
Cc1cccc2[nH]c(-c3ccc(-c4cccc(CNCCc5ccncc5)c4)cc3)nc12 was tested, and the IC50 was 200 nM.
For CN1CCCC1CCNCc1cccc(-c2cnc(N3CCCC(C)(C)C3)nc2)c1 (stereo not drawn), the IC50 was 930 nM.
CCCCCCc1cc(OC)c(OC)cc1C(C)Nc1ccnc2cc(Cl)ccc12 (stereo not drawn) gave an IC50 of 490 nM.
For COc1ccc2nccc([C@@H](O)CN3CCC(NC(=O)C(c4cc5ccccc5o4)N4CCN(C(c5ccccc5)c5ccccc5)CC4)CC3)c2c1 (stereo partly drawn), the IC50 was 150 nM.
In the case of Cc1ccc(-n2[nH]c(C)c(N=Nc3cccc(-c4cccc(NC(=O)OC(C)(C)C)c4)c3O)c2=O)cc1C, the IC50 is reported as 700 nM.
CN(C)c1cccc2c1nc(-c1ccco1)n2CC1CCCN1 (stereo not drawn) gave an IC50 of 970 nM.
Compound NC(N)=NN=CC(=O)Nc1ccc(C(F)(F)F)cc1 has an IC50 of 930 nM.
For CCC(CN1C(=O)C(c2ccccc2)(c2ccccc2)N=C1N)c1ccccc1 (stereo not drawn), the IC50 was 140 nM.
Cc1[nH]c(C)c(-c2ccc(Cl)cc2Cl)c(=O)c1Br was tested, and the IC50 was 1010 nM.
O=C(/C=C/c1ccc(O)cc1)NC1CCC(CN2CCC(c3c[nH]c4ccccc34)CC2)CC1 (stereo not drawn) was tested, and the IC50 was 740 nM.
Compound CCCCOc1ccc(C(=O)C(CCC(CNC(C)(C)C)C(=O)c2ccc(OCCCC)cc2)CNC(C)(C)C)cc1 (stereo not drawn) has an IC50 of 1020 nM.
In the case of O=C(NCCCCN1CCC(c2ccc([N+](=O)[O-])cc2)CC1)c1ccc(NC(=O)c2ccc(Cl)cc2)cc1, the IC50 is reported as 760 nM.
Compound COc1ccc2nc(N)nc(C)c2c1 has an IC50 of 930 nM.
CCc1cccc(NC(=O)/C=C/c2ccc3c(c2)CN(C)CC3)c1 was tested, and the IC50 was 770 nM.
Work on NC(N)=NCCCCN(Cc1ccccc1)c1ccccc1 yielded an IC50 of 740 nM.
For Cc1cc(N[C@@H](CC(C)C)C(=O)NCc2cccc(F)c2)nc(NCCc2ccc(F)cc2)n1, the IC50 was 1470 nM.
Work on NOCCCOc1ccccc1 yielded an IC50 of 320 nM.
In the case of Cc1c(F)cc(C(=O)NC2CC2)cc1-c1ccc2c(cnn2S(=O)(=O)c2ccc(F)c(F)c2)c1, the IC50 is reported as 270 nM.
Compound CN(CCCNCc1cccc2ccccc12)CCCNCc1cccc2ccccc12 has an IC50 of 720 nM.
COc1ccc2nc(-c3ccccc3)cc(NN=Cc3ccncc3)c2c1 was tested, and the IC50 was 810 nM.
Compound CN(C)CCC=C1c2ccccc2Sc2c(O)cc(Cl)cc21 has an IC50 of 280 nM.
COc1cccc(CNC(=O)c2ccnc(-c3ccc(CNCCOc4ccccc4)cc3)c2)c1 showed an IC50 of 1200 nM.
O=C(NC1CC1)c1ccc2cc(C(=O)N3Cc4ccccc4C(c4ccccc4)C3)ccc2c1 (stereo not drawn) gave an IC50 of 910 nM.
Work on COCCNCc1cccc(C#Cc2cc3ncnc(Nc4ccc(OCc5cccc(F)c5)c(Cl)c4)c3s2)n1 yielded an IC50 of 740 nM.
COc1ccc(NC(=O)Nc2cccc(-c3ccc(-c4nc5c(C)cccc5[nH]4)s3)c2)cc1 showed an IC50 of 670 nM.
With COc1cccc(Nc2nccc(NCC(O)c3cccc(C(F)(F)F)c3)n2)c1 (stereo not drawn) the IC50 was 700 nM.
COc1ccc(O)c(Cc2cnc3nc(N)nc(N)c3c2C)c1 gave an IC50 of 40 nM.
For COc1ccc2c(c1)[nH]c1c(C=Cc3ccccc3)nccc12, the IC50 was 380 nM.
Compound COc1ccc(-c2nc3cccnc3n2CC(=O)Nc2c(C)cc(C)cc2C)c(OC)c1 has an IC50 of 930 nM.
Work on CCNc1nc(OCC(F)(F)F)nc(N(c2ccccc2)c2ccccc2)n1 yielded an IC50 of 470 nM.
With CCCSc1nc2c(c(=O)n1CCc1ccccc1)C1(CCCC1)Cc1ccccc1-2 the IC50 was 700 nM.
With O=C(Cn1nc(Br)nc1[N+](=O)[O-])NCC1CCCCC1 the IC50 was 1100 nM.
Work on CN(C)C(=S)NN=Cc1cccc(O)c1O yielded an IC50 of 870 nM.
Compound O=C(Nc1ccc(S(=O)(=O)N2CCOCC2)cc1)c1cc(-c2cc(Cl)ccc2O)n[nH]1 has an IC50 of 770 nM.
Work on CC(C)(CNCc1cc(Cl)cc(Cl)c1)c1nc(-c2ccc(Cl)c(O)c2)c(-c2ccnc(N)n2)[nH]1 yielded an IC50 of 1010 nM.
CN(C)CCn1cc(C(=O)c2cc(Cl)ccc2O)cc1-c1nc2ccccc2c(=O)[nH]1 showed an IC50 of 630 nM.
With Cc1cc(NC(=O)Nc2ccc3nccc(N4CCN(C)CC4)c3c2)ccc1Br the IC50 was 90 nM.
Compound Cc1cc(-c2ccc(CN3Cc4ccccc4C3)cc2)ccc1S(=O)(=O)NCCN1CCCC1 has an IC50 of 970 nM.
For c1ccc(-c2[nH]c3ccccc3c2CN2CCC(N3CCCCC3)CC2)nc1, the IC50 was 1210 nM.
Compound CC(C)C[C@H](Nc1ccnc(NCC2CCCCC2)n1)C(=O)NCCOc1ccccc1 has an IC50 of 1020 nM.
CCOC(=O)CN(c1ccc(Br)cc1OCCOc1cc(Br)ccc1N(CC(=O)OCC)C(C)C(=O)OCC)C(C)C(=O)OCC (stereo not drawn) gave an IC50 of 810 nM.
With COC(=O)Cn1c(C2CCN(CC3CCN(C(=O)/C=C/c4ccc(Cl)c(Cl)c4)CC3)CC2)nc2ccccc21 the IC50 was 1200 nM.
Compound Cc1ccccc1C1CCN(C2CCC(NC(=O)/C=C/c3ccc(C(F)(F)F)cc3F)CC2)CC1 (stereo not drawn) has an IC50 of 900 nM.
Work on CC(=O)Nc1cccc(C(=O)Nc2cccc(-c3ccc(-c4nc5ccc(F)cc5[nH]4)s3)c2)c1 yielded an IC50 of 900 nM.
O=C(/C=C/c1ccc(Cl)c(Cl)c1)NCCCCCN1CCC(NC(=O)NCCc2ccccc2)CC1 showed an IC50 of 720 nM.
CC(Cc1ccc(OCCN2CCN(c3cccc(C(F)(F)F)c3)CC2)cc1)NCC(O)c1cccc(C(F)(F)F)c1 (stereo not drawn) was tested, and the IC50 was 180 nM.
COc1ccc2c(c1)CC1CN(CCCCNC(=O)c3ccc(NC(=O)c4cc(Cl)cc(Cl)c4)cc3)CCN1C2 (stereo not drawn) was tested, and the IC50 was 770 nM.
With O=C(/C=C/c1ccc(Cl)c(Cl)c1)N1CCC(CN2CC[C@H](c3c[nH]c4ccccc34)[C@@H](O)C2)CC1 the IC50 was 810 nM.
COc1ccc([C@@]23Oc4cc(OC)cc(OC)c4[C@]2(O)C2(CC3c3ccccc3)SCCCS2)cc1 (stereo partly drawn) gave an IC50 of 120 nM.
In the case of CN(C)c1ccc(Br)c(Br)c1, the IC50 is reported as 970 nM.
With Clc1ccc(Nc2nc(NCc3ccccc3)nc(N/N=C/c3ccccn3)n2)cc1 the IC50 was 780 nM.
With COc1ccccc1C1CCN(Cc2csc(NC(=O)c3ccc(-c4ccc(C(F)(F)F)cc4)cc3)n2)CC1 the IC50 was 950 nM.
CN1CCCC(CN2CCN(Cc3ccc(-c4ccc(-c5nc6ccccc6[nH]5)s4)cc3)CC2)C1 (stereo not drawn) gave an IC50 of 130 nM.
For N#CCc1ccc(Nc2nccc(Nc3ccc(Oc4ccccc4)cc3)n2)cc1, the IC50 was 810 nM.
Work on O=C(NC1CCC1)C1CCN(C(c2ccc(Cl)cc2)c2ccc(Cl)cc2)CC1 yielded an IC50 of 560 nM.
With CC(=O)Nc1ccc(CN2CCN(C(c3ccc(F)cc3)c3ccc(F)cc3)CC2)cc1 the IC50 was 830 nM.
Compound O=C(Nc1ccc(-c2ccc(-c3nc4ccccc4[nH]3)cc2)cc1)Nc1ccc(Cl)c(Cl)c1 has an IC50 of 100 nM.
With CC(C)c1ccc(CN2CCC(CNC(=O)c3cc(-c4cccc(F)c4)cs3)C2)cc1 (stereo not drawn) the IC50 was 1660 nM.
For Cc1nc(C(=O)N2CCCC[C@H]2CNC(=O)c2ccc(-c3ccc(N4CCCC4=O)cc3C)cc2)c(-c2ccc(F)cc2)s1, the IC50 was 460 nM.
With Cn1cncc1C(=O)Nc1cccc(-c2ccc(-c3nc4ccc(C(F)(F)F)cc4[nH]3)cc2)c1 the IC50 was 510 nM.
Cc1cc(NC(=O)Nc2ccc(C(C)(C)C)cc2)c2ccccc2n1 was tested, and the IC50 was 720 nM.
CCOC(=O)Nc1cc(-c2csc(N=C(N)N)n2)cc([N+](=O)[O-])c1 gave an IC50 of 820 nM.
Work on CCCN1CCN(c2cc(NCC)c3c4c(onc24)-c2ccccc2C3=O)CC1 yielded an IC50 of 1060 nM.
Cc1cc2c3c(N)nc(N)nc3ccc2n1C(C)C gave an IC50 of 10 nM.
In the case of O=C(/C=C/c1ccc(Cl)c(Cl)c1)NCCCCCN1CCC(NC(=O)Nc2ccc([N+](=O)[O-])cc2)CC1, the IC50 is reported as 690 nM.
O=C(NCc1cccc(Cl)c1)c1ccc(CNC2CCN(Cc3ccccc3)CC2)cc1 was tested, and the IC50 was 880 nM.
NC(=O)c1cccc(Nc2nccc(Nc3ccc(Oc4c(Cl)cccc4Cl)c(Cl)c3)n2)c1 gave an IC50 of 870 nM.
In the case of Cc1cc(NCCCN2CCCC2=O)n2c(nc3ccccc32)c1C#N, the IC50 is reported as 860 nM.
CN(C)CC(=O)N(Cc1ccc(Cl)c(Cl)c1)Cc1csc(-c2ccc(CNCc3ccccc3)cc2)n1 showed an IC50 of 1050 nM.
Work on c1ccc2c(NCCCCCCCNc3ccnc4ccccc34)ccnc2c1 yielded an IC50 of 170 nM.
Work on CN1CCC(Oc2cc(NC(=O)Nc3ccc(-c4ccncc4)c(Cl)c3)ccc2Cl)CC1 yielded an IC50 of 530 nM.
CNc1ccc(CNCc2cccc(-c3ccc(-c4nc5ccc(C(F)(F)F)cc5[nH]4)cc3)c2)cc1 gave an IC50 of 110 nM.
For Cc1ccc(NC(=O)c2ccc(CN3CCCN(CC4CCCCC4)CC3)cc2)cc1C, the IC50 was 1020 nM.
Cc1ccc(NC(=O)c2ccc(-c3cc4cc(Cl)c(Cl)cc4[nH]3)cc2)cc1OCCN1CCCC1 showed an IC50 of 990 nM.
CCC(C)(C)c1ccc2nc(N)nc(N)c2c1C was tested, and the IC50 was 10 nM.
In the case of CCn1ccc2c(N3CCCS3(=O)=O)cc(C(=O)N[C@@H](Cc3ccccc3)[C@H](O)CNC(C)(C)CCCC(C)C)cc21, the IC50 is reported as 490 nM.
Compound CCc1cn2c3c(cc(C(=O)N[C@@H](Cc4ccccc4)[C@H](O)CNC(C)(C)c4cccc(OC)c4)cc13)N(C)S(=O)(=O)C2 has an IC50 of 60 nM.
Compound Cc1cc(C)c(C)c(S(=O)(=O)N2CCCCC(c3ccc(F)c(F)c3)=N2)c1C has an IC50 of 710 nM.
In the case of CC(=O)Nc1ccc(CCNC(C)Cc2ccc(C(=O)Nc3ccc(CC(C)NCCc4cccc(Cl)c4)cc3)cc2)cc1 (stereo not drawn), the IC50 is reported as 330 nM.
